These are literature values, as cited in patent publication US11339174B2, “γ-spiroketal-γ-lactones and pharmaceutical composition containing same and process for preparation thereof” (Council of Scientific and Industrial Research, priority 2017, dated 2022).

Values after ≈ are worked out from the molar mass of the structure shown.

The subject of one series is HL-60. As to conditions: anticancer.

In the case of `C[C@H]1O[C@@H]2C[C@]3(C=CC(=O)O3)O[C@@H]2[C@H]1O` [pyrenolide D], the “IC50 against HL-60” value in the series on HL-60 is 4 µg/mL (≈ 18.9 µM).
Take massarinoline A: in the series on Bacillus subtilis, the “activity against Bacillus subtilis” value is “active”. Besides, the “activity against Staphylococcus aureus” value in the series with Staphylococcus aureus was “active”.
